Experimental data taken from patent US9365506B2, “Compounds and compositions as TLR2 agonists” (NOVARTIS AG, priority 2010, dated 2016).

Target: human TLR2 (Homo sapiens, UniProt O60603)
Assay: Reporter gene assay: HEK 293 cells stably transfected with human TLR2 and NF-kB-driven luciferase reporter
Settings: for Emax: HEK293, 7 h, read-out: Hek-TLR2 (% Eff); for EC50: Hek-TLR2 μM (EC50), HEK 293 stably transfected with human TLR2 and pNifty-Luciferase, 7 hours incubation, concentration giving 50% of maximal signal
Method: As a control assay, normal Hek293 transfected with pNifty-Luc were used. […] Bright-Glo™ Luciferase assay buffer and substrate were supplied by Promega #E263B and #E264B (assay substrate and buffer respectively). 384 well clear-bottom plates were supplied by Greiner bio-one (#789163-G) and were custom bar-coded plates.
Cells were plated at 25,000 cells/well in 384-well plates in a final volume of 50 μl of media. Cells were allowed to adhere to the plates after overnight (18 hours) culture at 37° C. and 5% CO2. Serially diluted experimental and positive control compounds were then dispensed to each well and incubated for 7 hours at 37° C. and 5% CO2. Cells stimulated with DMSO alone also serve as negative controls. After the incubation, 30 μl of the pre-mix assay buffer and substrate buffer were added to each well according to manufacturer's instructions. The luminescence signal was read on a CLIPR machine with an integration time of 20 seconds per plate.

Sequence of human TLR2 (O60603 21-784): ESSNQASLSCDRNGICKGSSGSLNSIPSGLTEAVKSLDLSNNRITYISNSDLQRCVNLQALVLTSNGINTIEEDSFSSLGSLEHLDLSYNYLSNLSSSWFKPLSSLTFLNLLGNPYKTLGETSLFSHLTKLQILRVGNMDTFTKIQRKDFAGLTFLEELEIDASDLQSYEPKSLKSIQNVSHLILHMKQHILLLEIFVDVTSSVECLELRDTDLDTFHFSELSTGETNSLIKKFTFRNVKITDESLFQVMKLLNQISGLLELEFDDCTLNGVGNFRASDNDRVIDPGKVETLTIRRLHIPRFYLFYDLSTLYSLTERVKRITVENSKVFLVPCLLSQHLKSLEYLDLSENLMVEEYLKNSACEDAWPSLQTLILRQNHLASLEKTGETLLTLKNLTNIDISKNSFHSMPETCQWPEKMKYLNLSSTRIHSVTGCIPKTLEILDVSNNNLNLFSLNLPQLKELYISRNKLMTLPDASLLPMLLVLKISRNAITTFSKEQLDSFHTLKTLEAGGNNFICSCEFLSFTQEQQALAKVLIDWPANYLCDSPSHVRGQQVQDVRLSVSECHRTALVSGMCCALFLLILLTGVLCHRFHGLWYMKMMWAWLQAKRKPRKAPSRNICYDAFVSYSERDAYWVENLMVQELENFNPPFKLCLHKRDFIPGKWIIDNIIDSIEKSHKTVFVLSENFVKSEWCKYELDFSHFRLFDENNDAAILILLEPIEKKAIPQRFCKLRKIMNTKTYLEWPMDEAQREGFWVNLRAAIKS

| Compound | Emax [%] | EC50 [µM] | Hek-TLR2 (% Eff) (% Eff relative to Pam3CSK4, HEK 293 human TLR2 NF-kB luciferase) |
| --- | --- | --- | --- |
| CCCCCCCCCCCC(=O)OC[C@H](CSC[C@H](N)C(=O)NCCOCCC(F)(F)P(=O)(O)O)OC(=O)CCCCCCCCCCC [Example 21, (9R,13R)-9-amino-13-(dodecanoyloxy)-1,1-difluoro-8,16-dioxo-4,15-dioxa-11-thia-7-azaheptacosylphosphonic acid] | 122 | 0.014 | – |
| CCCCCCCCCCCCCCCC(=O)N[C@@H](CSC[C@@H](COC(=O)CCCCCCCCCCC)OC(=O)CCCCCCCCCCC)C(=O)NCCCOCCOCCOCCCNC(=O)CCC1OCCO1 [Example 40, (20R,24R)-1-(1,3-dioxolan-2-yl)-3,19-dioxo-20-palmitamido-8,11,14-trioxa-22-thia-4,18-diazapentacosane-24,25-diyl didodecanoate] | 25 | 0.096 | – |
| CCCCCCCCCCCC(=O)OC[C@H](CSC[C@H](N)C(=O)NCCCCCCCCCC(=O)O)OC(=O)CCCCCCCCCCC [Example 42, 10-((R)-2-amino-3-(((R)-2,3-bis(dodecanoyloxy)propyl)thio)propanamido)decanoic acid] | 101 | 4.4 | – |
| CCCCCCCCCCCC(=O)OC[C@H](CSC[C@H](N)C(=O)N[C@@H](CC)COCC(=O)O)OC(=O)CCCCCCCCCCC [Example 13, (5S,8R,12R)-8-amino-12-(dodecanoyloxy)-5-ethyl-7,15-dioxo-3,14-dioxa-10-thia-6-azahexacosan-1-oic acid] | 118 | 6.5 | – |
| CCCCCCCCCCCC(=O)OC[C@H](CSC[C@H](N)C(=O)NCCOCCOCCN)OC(=O)CCCCCCCCCCC [Example 54, (11R,15R)-1,11-diamino-10-oxo-3,6-dioxa-13-thia-9-azahexadecane-15,16-diyl didodecanoate] | 101 | 1.29 | – |
| CCCCCCCCCCNC(=O)OC[C@H](CSC[C@H](N)C(=O)NCCOCCOCCOCCC(=O)O)OC(=O)NCCCCCCCCCC [Example 37, (15R,19R)-15-amino-19-(decylcarbamoyloxy)-14,22-dioxo-4,7,10,21-tetraoxa-17-thia-13,23-diazatritriacontan-1-oic acid] | 7 | 6.21 | – |
| CCCCCCCCCCNC(=O)OC[C@H](CSC[C@H](N)C(=O)NCCOCCOCCOCCP(=O)(O)O)OC(=O)NCCCCCCCCCC [Example 83, ((14R,18R)-14-amino-18-((decylcarbamoyl)oxy)-13,21-dioxo-3,6,9,20-tetraoxa-16-thia-12,22-diazadotriacontyl)phosphonic acid] | 76 | 0.82 | – |
| CCCCCCCCCCCC(=O)OC[C@H](CSC[C@H](N)C(=O)NCCc1ccc(OCCOCCO)cc1)OC(=O)CCCCCCCCCCC [Example 41, (R)-3-(((R)-2-amino-3-((4-(2-(2-hydroxyethoxy)ethoxy)phenethyl)amino)-3-oxopropyl)thio)propane-1,2-diyl didodecanoate] | 61 | 15.3 | – |
| CCCCCCCCCCCC(=O)OC[C@H](CSC[C@H](N)C(=O)NCCCOCCOCCOCCCNC(=O)C(N)CS)OC(=O)CCCCCCCCCCC (stereo partly drawn) [Example 9, (20R,24R)-2,20-diamino-1-mercapto-3,19-dioxo-8,11,14-trioxa-22-thia-4,18-diazapentacosane-24,25-diyl didodecanoate] | 73 | 0.247 | – |
| CCCCCCCCNC(=O)OC[C@H](CSC[C@H](N)C(=O)NCCOCCOCCOCCP(=O)(O)O)OC(=O)NCCCCCCCC [Example 38, (14R,18R)-14-amino-18-(octylcarbamoyloxy)-13,21-dioxo-3,6,9,20-tetraoxa-16-thia-12,22-diazatriacontylphosphonic acid] | 107 | 7.03 | – |
| CCCCCCCCCCCC(=O)OC[C@H](CSC[C@H](N)C(=O)NCCCCCN)OC(=O)CCCCCCCCCCC [Example 7, (R)-3-((R)-2-amino-3-(5-aminopentylamino)-3-oxopropylthio)propane-1,2-diyl didodecanoate] | 113 | 1.22 | – |
| CCCCCCCCCCCC(=O)OC[C@H](CSC[C@H](N)C(=O)NCCc1cccc(O)c1)OC(=O)CCCCCCCCCCC [Example 49, (R)-3-(((R)-2-amino-3-((3-hydroxyphenethyl)amino)-3-oxopropyl)thio)propane-1,2-diyl didodecanoate] | 51 | > 21 | – |
| CCCCCCCCCCCC(=O)OC[C@H](CSC[C@H](N)C(=O)NCCOCCOCCOCCOCCP(=O)(O)O)OC(=O)CCCCCCCCCCC [Example 77, ((17R,21R)-17-amino-21-(dodecanoyloxy)-16,24-dioxo-3,6,9,12,23-pentaoxa-19-thia-15-azapentatriacontyl)phosphonic acid] | 100 | 0.038 | – |
| CCCCCCCCCCCCOC[C@H](CSC[C@H](N)C(=O)NCCOCCOCCOCCOCCP(=O)(O)O)OCCCCCCCCCCCC [Example 78, ((17R,21R)-17-amino-21-(dodecyloxy)-16-oxo-3,6,9,12,23-pentaoxa-19-thia-15-azapentatriacontyl)phosphonic acid] | 35 | 1.43 | – |
| CCCCCCCCCCCCCCCC(=O)N[C@@H](CSC[C@@H](COC(=O)CCCCCCCCCCC)OC(=O)CCCCCCCCCCC)C(=O)NCCOCCOCCOCCC(=O)O [Example 87, (15R,19R)-19-(dodecanoyloxy)-14,22-dioxo-15-palmitamido-4,7,10,21-tetraoxa-17-thia-13-azatritriacontan-1-oic acid] | 30 | 38 | – |
| CCCCCCCCCCCC(=O)OC[C@H](CSC[C@H](N)C(=O)NCCc1ccc(Oc2ccccc2)cc1)OC(=O)CCCCCCCCCCC [Example 68, (R)-3-(((R)-2-amino-3-oxo-3-((4-phenoxyphenethyl)amino)propyl)thio)propane-1,2-diyl didodecanoate] | 77 | 4.08 | – |
| CCCCCCCCCCCC(=O)OC[C@H](CSC[C@H](N)C(=O)N[C@@H](C)COCCCP(=O)(O)O)OC(=O)CCCCCCCCCCC [Example 14, (6S,9R,13R)-9-amino-13-(dodecanoyloxy)-6-methyl-8,16-dioxo-4,15-dioxa-11-thia-7-azaheptacosylphosphonic acid] | 153 | 0.0192 | – |
| CCCCCCCCCCCC(=O)OC[C@H](CSC[C@H](N)C(=O)NCCCN1CCOCC1)OC(=O)CCCCCCCCCCC [Example 59, (R)-3-(((R)-2-amino-3-((3-morpholinopropyl)amino)-3-oxopropyl)thio)propane-1,2-diyl didodecanoate] | 121 | 0.71 | – |
| CCCCCCCCCCNC(=O)OC[C@H](CSC[C@H](NC(C)=O)C(=O)NCCOCCOCCOCCP(=O)(O)O)OC(=O)NCCCCCCCCCC [Example 82, ((14R,18R)-14-acetamido-18-((decylcarbamoyl)oxy)-13,21-dioxo-3,6,9,20-tetraoxa-16-thia-12,22-diazadotriacontyl)phosphonic acid] | 84 | 0.83 | – |
| CCCCCCCCCCNC(=O)OC[C@H](CSC[C@H](N)C(=O)NCCOCCOCCOCCP(=O)(O)O)OC(=O)NCCCCCCCCCC [Example 36, (14R,18R)-14-amino-18-(decylcarbamoyloxy)-13,21-dioxo-3,6,9,20-tetraoxa-16-thia-12,22-diazadotriacontylphosphonic acid] | – | 0.822 | (76%) |
| CCCCCCCCCCCCOC[C@H](CSC[C@H](N)C(=O)N[C@@H](C)COCCOCCOCCP(=O)(O)O)OCCCCCCCCCCCC [Example 29, ((11S,14R,18R)-14-amino-18-(dodecyloxy)-11-methyl-13-oxo-3,6,9,20-tetraoxa-16-thia-12-azadotriacontyl)phosphonic acid] | 74 | 1.85 | – |
| CCCCCCCCCCCC(=O)OC[C@H](CSC[C@H](N)C(=O)NCCCC(C)(C)CO)OC(=O)CCCCCCCCCCC [Example 72, (R)-3-(((R)-2-amino-3-((5-hydroxy-4,4-dimethylpentyl)amino)-3-oxopropyl)thio)propane-1,2-diyl didodecanoate] | 49 | 30.7 | – |
| CCCCCCCCCCCCCCCCOC[C@H](CSC[C@H](N)C(=O)N[C@@H](CC)C(=O)N[C@H](CCC(=O)O)C(N)=O)OCCCCCCCCCCCCCCCC [Example 10, (4R,7S,10R,14R)-10-amino-4-carbamoyl-7-ethyl-14-(hexadecyloxy)-6,9-dioxo-16-oxa-12-thia-5,8-diazadotriacontan-1-oic acid] | 72 | 14.1 | – |
| CCCCCCCCCCCC(=O)OC[C@H](CSC[C@H](N)C(=O)NCCOCCOCCC(F)(F)P(=O)(O)O)OC(=O)CCCCCCCCCCC [Example 4, (12R,16R)-12-amino-16-(dodecanoyloxy)-1,1-difluoro-11,19-dioxo-4,7,18-trioxa-14-thia-10-azatriacontylphosphonic acid] | 101 | 0.031 | – |
| CCCCCCCCCCNC(=O)OC[C@H](CSC[C@H](NC(=O)CCCCCC)C(=O)NCCOCCOCCOCCP(=O)(O)O)OC(=O)NCCCCCCCCCC [Example 85, ((14R,18R)-18-((decylcarbamoyl)oxy)-14-heptanamido-13,21-dioxo-3,6,9,20-tetraoxa-16-thia-12,22-diazadotriacontyl)phosphonic acid] | 71 | 2.17 | – |
| CCCCCCCCCCCCOC[C@H](CSC[C@H](N)C(=O)NCCOCCOCCOCCC(=O)O)NC(=O)CCCCCCCCCCC [Example 33, (15R,19R)-15-amino-19-dodecanamido-14-oxo-4,7,10,21-tetraoxa-17-thia-13-azatritriacontan-1-oic acid] | 48 | 3.85 | – |
| CCCCCCCCCCCCCCCC(=O)N[C@@H](CSC[C@@H](COC(=O)CCCCCCCCCCC)OC(=O)CCCCCCCCCCC)C(=O)N[C@@H](C)C(=O)N[C@H](CCC(=O)O)C(N)=O [Example 75, (4R,7S,10R,14R)-4-carbamoyl-14-(dodecanoyloxy)-7-methyl-6,9,17-trioxo-10-palmitamido-16-oxa-12-thia-5,8-diazaoctacosan-1-oic acid] | 58 | 0.96 | – |
